This is an account of results in US20220348584A1, “PERK INHIBITING INDOLINYL COMPOUNDS” (HiberCell, Inc., priority 2019, published 2022).

Structures are written as SMILES. Where two headings read alike, the source gives them in different places.

In test [1] the target is T1, EIF2AK3 (PERK) catalytic domain (amino acids 536-1116) (Homo sapiens, UniProt Q9NZJ5).
T1 construct: EIF2AK3 (PERK) catalytic domain (amino acids 536-1116); purchased Invitrogen, Carlsbad, Calif
T1 sequence (Q9NZJ5 536-1116): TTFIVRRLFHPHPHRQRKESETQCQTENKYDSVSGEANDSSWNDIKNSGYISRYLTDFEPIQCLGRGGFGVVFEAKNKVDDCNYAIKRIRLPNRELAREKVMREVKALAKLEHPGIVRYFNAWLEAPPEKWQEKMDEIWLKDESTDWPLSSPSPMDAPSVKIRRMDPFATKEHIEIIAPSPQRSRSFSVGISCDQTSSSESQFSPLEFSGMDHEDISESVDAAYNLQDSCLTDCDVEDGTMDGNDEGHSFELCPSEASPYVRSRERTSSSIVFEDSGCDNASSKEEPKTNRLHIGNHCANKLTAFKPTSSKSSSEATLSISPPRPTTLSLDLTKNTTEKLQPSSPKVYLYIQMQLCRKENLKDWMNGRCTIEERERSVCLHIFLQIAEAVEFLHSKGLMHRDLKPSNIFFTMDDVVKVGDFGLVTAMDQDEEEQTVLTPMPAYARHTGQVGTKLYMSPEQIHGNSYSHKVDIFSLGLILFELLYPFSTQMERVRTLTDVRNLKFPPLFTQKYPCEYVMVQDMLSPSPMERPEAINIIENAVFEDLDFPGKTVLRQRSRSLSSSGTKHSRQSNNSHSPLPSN
Put plainly: PERK In Vitro Activity Assay (Isolated), TR-FRET kinase assay. Conditions: isolated PERK enzyme, 1.5 μM ATP. Type of test: biochemical. On the procedure:
Perform TR-FRET kinase assays in the absence or presence of inhibitors in a reaction buffer consisting of 50 mM HEPES, pH 7.5, 10 mM MgCb, 1.0 mM EGTA, and 0.01% Brij-35, and 100-200 nM GFP-eIF2a substrate. […] Add test compound, initiate the reaction by addition of enzyme, and incubate at room temperature for 45 minutes. Stop the reaction by addition of EDTA to a final concentration of 10 mM, add Terbium-labelled phospho-eIF2a antibody at a final concentration of 2 nM, and incubate for 90 minutes. Monitor the resulting fluorescence in an EnVison® Multilabel reader (PerkinElmer, Waltham, Mass.).
In general terms: Time-resolved FRET reads energy transfer from a long-lived donor to a nearby acceptor.

The test system of another test is HEK293-EGFP-eIF2a cells. Briefly: PERK Cellular Assay (TR-FRET, GFP-eIF2α, tunicamycin-induced ER stress). Type of test: cell-based, human. On the procedure:
Stable cell lines were created in HEK293 cells using lentiviral particles harboring an expression vector for GFP-eIF2α. Cells were selected using puromycin and enriched using fluorescence activated cell sorting against GFP. HEK293-EGFP-eIF2a cells were plated at 5000 cells/well in 384-well assay plates and incubated overnight at 37° C., 5% CO2. Inhibitor compounds were added to the wells by Echo acoustic dispensing and incubated for 30 minutes at 37° C., 5% CO2 prior to induction of ER stress by addition of tunicamycin to […] for 2 hours. Cells were lysed and TR-FRET was measured in an EnVision plate reader (PerkinElmer). FRET ratio data was normalized to signal from lysates treated with DMSO vehicle control and plotted as percent inhibition against 10-point; 3-fold dilution series of inhibitors. IC50 values were calculated using 4-parameter logistical fitting in XLFit.

[2] abbreviates: Homo sapiens, 2 h, HEK293-EGFP-eIF2a cells, tunicamycin 2 hours, TR-FRET, read-out: Cellular eIF2α IC50.
Where [3] appears, read: HEK293-EGFP-eIF2a cells, tunicamycin 2 hours, TR-FRET, read-out: Cellular eIF2α IC50.

As to `Cc1nc(-c2ccc3c(c2)CCN3C(=O)Cc2cc(F)cc(C(F)(F)F)c2)c2c(N)ncc(Cl)n12` [Example 33, 1-(5-(8-amino-5-chloro-3-methylimidazo[1,5-a]pyrazin-1-yl)indolin-1-yl)-2-(3-fluoro-5-(trifluoromethyl)phenyl)ethanone], the IC50 (in test [1] (read-out: Biochemical IC50); with HEK293-EGFP-eIF2a cells (setting [2])) was 0.001 to 0.025 µM each time.
Consider `Cn1cc(-c2ccc3c(c2F)CCN3C(=O)C(O)c2ccccc2)c2c(N)ncnc21` (single isomer, unassigned) [Example 2, 1-(5-(4-amino-7-methyl-7H-pyrrolo[2,3-d]pyrimidin-5-yl)-4-fluoroindolin-1-yl)-2-hydroxy-2-phenylethanone], for which the IC50 – broadly, the point on the concentration scale where inhibition reaches its midpoint – in test [1] (read-out: Biochemical IC50) lay within 0.051 to 0.1 µM; in the test on HEK293-EGFP-eIF2a cells (setting [3]), 0.101 to 0.25 µM.
The corresponding values for `Cc1cn2c(C3CC(C)(O)C3)nc(-c3ccc4c(c3F)CCN4C(=O)C(O)c3cccc(F)c3)c2c(N)n1` (single isomer, unassigned) [Example 13, 1-(5-(8-amino-3-(3-hydroxy-3-methylcyclobutyl)-6-methylimidazo[1,5-a]pyrazin-1-yl)-4-fluoroindolin-1-yl)-2-(3-fluorophenyl)-2-hydroxyethanone] are 0.026 to 0.05 µM and 0.251 to 0.5 µM.
For the compound `Cc1cccc(CC(=O)N2CCc3c2ccc(-c2nc(C)n4c(C)cnc(N)c24)c3F)n1` [Example 24, 1-(5-(8-amino-3,5-dimethylimidazo[1,5-a]pyrazin-1-yl)-4-fluoroindolin-1-yl)-2-(6-methylpyridin-2-yl)ethanone], the IC50 lay within 0.051 to 0.1 µM in test [1] (read-out: Biochemical IC50) and 0.026 to 0.05 µM in the test with HEK293-EGFP-eIF2a cells (setting [2]).
Consider `Cn1cc(-c2ccc3c(c2F)CCN3C(=O)C(F)(F)c2ccccc2)c2c(N)ncnc21` [Example 30, 1-(5-(4-amino-7-methyl-7H-pyrrolo[2,3-d]pyrimidin-5-yl)-4-fluoroindolin-1-yl)-2,2-difluoro-2-phenylethanone], for which the IC50 was 0.026 to 0.05 µM in test [1] (read-out: Biochemical IC50) and 0.101 to 0.25 µM with HEK293-EGFP-eIF2a cells (setting [2]).
As for `Cc1cccc(CC(=O)N2CCc3c2ccc(-c2nc(C)n4cc(C)nc(N)c24)c3F)n1` [Example 26, 1-(5-(8-amino-3,6-dimethylimidazo[1,5-a]pyrazin-1-yl)-4-fluoroindolin-1-yl)-2-(6-methylpyridin-2-yl)ethanone], the IC50 (in test [1] (read-out: Biochemical IC50); in the test with HEK293-EGFP-eIF2a cells (setting [2])) was 0.101 to 0.25 µM in each case.
On to `Cc1cc(C)n(CC(=O)N2CCc3c2ccc(-c2cn(C)c4ncnc(N)c24)c3F)n1` [Example 31, 1-(5-(4-amino-7-methyl-7H-pyrrolo[2,3-d]pyrimidin-5-yl)-4-fluoroindolin-1-yl)-2-(3,5-dimethyl-1H-pyrazol-1-yl)ethanone], for which the IC50 in test [1] (Biochemical IC50 (μM)) was in the range of 0.001 to 0.025 µM; with HEK293-EGFP-eIF2a cells (Homo sapiens, 2 h, read-out: Cellular eIF2α IC50 (μM)), 0.001 to 0.025 µM.
Regarding `Cn1cc(-c2ccc3c(c2F)CCN3C(=O)C(N)c2ccccc2)c2c(N)ncnc21` (single isomer, unassigned) [Example 4, 2-amino-1-(5-(4-amino-7-methyl-7H-pyrrolo[2,3-d]pyrimidin-5-yl)-4-fluoroindolin-1-yl)-2-phenylethanone], the IC50 was 0.101 to 0.25 µM in test [1] (read-out: Biochemical IC50) and 0.051 to 0.1 µM with HEK293-EGFP-eIF2a cells (setting [3]).
The corresponding values for `Cc1nc(N)c2c(-c3ccc4c(c3)CCN4C(=O)C(O)c3cc(F)cc(C(F)(F)F)c3)cn(C)c2n1` (single isomer, unassigned) [Example 20, 1-(5-(4-amino-2,7-dimethyl-7H-pyrrolo[2,3-d]pyrimidin-5-yl)indolin-1-yl)-2-(3-fluoro-5-(trifluoromethyl)phenyl)-2-hydroxyethanone] are 0.026 to 0.05 µM and 0.026 to 0.05 µM.
